Measurements published in patent US20060160773A1, “Combretastatin derivatives with cytotoxic action” (priority 2003, published 2006).

How the values were obtained:
[1] = Cancer Res., 62:3408-3416, 2002; cited from earlier work
[2] = system: M109 murine lung cancer line; assay: Cytotoxicity test (sulforodamine B), M109; type: cell-based; details: Mus musculus, 24 h exposure, 48 h recovery, SRB
Procedure: (§1) The cytotoxic effect of our derivatives was evaluated in series of human and murine cell lines.
(§2) The M109 murine lung cancer line, the HT29 human colon adenocarcinoma line, the A2780 human ovarian carcinoma line, obtained from the Milan Tumour Institute, were cultured in RPMI containing 10% FBS and antibiotics.
(§3) For the cytotoxicity test the cells were seeded at variable densities according to cell type in 96-well plates in normal culture medium (200 μl/well) and incubated for 24 hours at 37° C. On the next day, the study substances were added at scalar concentrations and the cells were incubated for a further 24 hours at 37° C. in a humidified atmosphere containing 5% CO2. At the end of the incubation period the medium containing the substances was removed and three washings with PBS were performed. At the end of the washings 200 μl/well of fresh medium were added and the plates were incubated at 37° C. for a further 48 hours. At the end of this incubation period the culture medium was removed by overturning the plates and 200 μl/well of PBS and 50 μl of 80% cold trichloroacetic acid (TCA) were added. The plates were then incubated in ice. After 1 h the TCA was removed, the plates were washed three times by immersion in distilled water and dried first on blotting paper and then in the oven. […] The optical density was measured by spectrophotometric readout at 540 nm. […]

[3] = system: NCI-H460 human lung cancer; assay: Cytotoxicity test (sulforodamine B), NCI-H460; type: cell-based; details: Homo sapiens, NCI-H460, read-out: IC50 ± SE
Procedure: as §1
(§4) The following cell lines, purchased from ATCC, were cultured according to the manufacturer's instructions: MeWo human melanoma, NCI-H460 human lung cancer, LoVo human colon adenocarcinoma, PC3 human prostate carcinoma, MES-SA human uterine sarcoma, HCT 116 human colorectal carcinoma, MCF-7 human breast carcinoma.
(§5) For the cytotoxicity test the cells were seeded at variable densities according to cell type in 96-well plates in normal culture medium (200 μl/well) and incubated for 24 hours at 37° C. On the next day, the study substances were added at scalar concentrations and the cells were incubated for a further 24 hours at 37° C. in a humidified atmosphere containing 5% CO2. At the end of the incubation period the medium containing the substances was removed and three washings with PBS were performed. At the end of the washings 200 μl/well of fresh medium were added and the plates were incubated at 37° C. for a further 48 hours. At the end of this incubation period the culture medium was removed by overturning the plates and 200 μl/well of PBS and 50 μl of 80% cold trichloroacetic acid (TCA) were added. The plates were then incubated in ice. After 1 h the TCA was removed, the plates were washed three times by immersion in distilled water and dried first on blotting paper and then in the oven. 200 μl of 0.4% sulforodamine B in 1% acetic acid were then added to all wells. The plates were incubated at room temperature for a further 30 minutes. The sulforodamine B was removed by overturning, the plates were washed three times by immersion in 1% acetic acid, and then dried first on blotting paper and then in the oven. 200 μl of Tris base 10 mM were then added to all wells and the plates were placed under stirring for at least 20 min. The optical density was measured by spectrophotometric readout at 540 nm.
(§6) In the same table are reported the IC50 of ST2897, ST2898 and ST2899 on BMEC.

[4] = system: HT29 human colon adenocarcinoma line; assay: Cytotoxicity test (sulforodamine B), HT29; type: cell-based; details: Homo sapiens, HT-29, read-out: IC50 ± SE
Procedure: as §1, §2, §5, §6

[5] = system: MES-SA human uterine sarcoma; assay: Cytotoxicity test (sulforodamine B), MES-SA; type: cell-based; details: Homo sapiens, MES-SA, read-out: IC50 ± SE
Procedure: as §1, §4, §5, §6

[6] = system: tubulin rich in microtubule-associated proteins (MAP); assay: Tubulin polymerisation inhibition test; type: biochemical; details: vs not treated control; mean of 3 independent determinations; concentration not given
Procedure: The tubulin polymerisation test in the presence of ST2151 was performed as described by Shiff et al. (Biochemistry, 1981, 20: 3247-3252) with a number of modifications. In brief, tubulin rich in microtubule-associated proteins (MAP) was diluted to the concentration of 3 mg/ml in PEM buffer [100 mM PIPES (pH 6.9), 1 mM EGTA and 1 mM MgCl2] containing 1 mM GTP (GPEM), and maintained in ice. The solution was placed at 37° C. and polymerisation was monitored by measuring absorbance at 340 nm every 25 seconds with a spectrophotometer equipped with an electronic temperature control device (Cobas-Mira Analyzer). After 5 minutes, when the polymerised tubulin had reached a steady state, 5 μM Taxol, 1.35 μM Colcemid, or ST2151 were added and the absorbance measurements were taken for a further 15 min. The IC50 values were determined by non-linear regression analysis using “Prism GraphPad” software. Results were expressed as % inhibition of tubulin polymerization vs not treated control.
The value indicated in Table 2 is the mean of 3 independent determinations.

[7] = system: EA-hy926, an immortalised hybridoma of HUVEC and adenocarcinoma cells; assay: Cytotoxicity test (sulforodamine B), EA-hy926; type: cell-based; details: Homo sapiens, EA.hy 926; EAHY.926; 24 h exposure, 48 h recovery, SRB
Procedure: as §1
(§7) Bovine microcirculatory endothelial cells (BMEC), isolated from bovine adrenal glands, were maintained in culture in DMEM containing 20% FBS, 50 μg/ml of bovine brain extract (BBE), 50 units/ml of heparin (SIGMA), 100 units/ml of gentami-cin (SIGMA) and 10 mg/ml of L-glutamine (Hyclone). EA-hy926, an immortalised hybridoma of HUVEC and adenocarcinoma cells, obtained from the University of Bari Department of Biomedical Sciences and Human Oncology, was cultured in DMEM added with 10% FBS and gentamicin.
as §3, with “hours.” for “hours. At the end of this incubation period the culture medium was removed by overturning the plates and 200 μl/well of PBS and 50 μl of 80% cold trichloroacetic acid (TCA) were added. The plates were then incubated in ice. After 1 h the TCA was removed, the plates were washed three times by immersion in distilled water and dried first on blotting paper and then in the oven.”

[8] = system: Bovine microcirculatory endothelial cells (BMEC); assay: Cytotoxicity test (sulforodamine B), BMEC; type: cell-based; details: Bos taurus, Endothelial cell, read-out: IC50 ± SE
Procedure: as §1, §7, §5, §6

[9] = system: A2780 human ovarian carcinoma line; assay: Cytotoxicity test (sulforodamine B), A2780; type: cell-based; details: Homo sapiens, A2780, read-out: IC50 ± SE
Procedure: as §1, §2, §5, §6

[10] = system: LoVo human colon adenocarcinoma; assay: Cytotoxicity test (sulforodamine B), LoVo; type: cell-based; details: 24 h exposure, 48 h recovery, SRB
Procedure: as §1, §4
as §3, with “ice.” for “ice. After 1 h the TCA was removed, the plates were washed three times by immersion in distilled water and dried first on blotting paper and then in the oven.”

[11] = system: B16/BL6 murine melanoma line; assay: Cytotoxicity test (sulforodamine B), B16/BL6; type: cell-based; details: Mus musculus, B16-BL6, read-out: IC50 ± SE
Procedure: as §1
The B16/BL6 murine melanoma line, obtained from the M. Negri Institute in Milan, was cultured in DMEM containing 10% FBS and antibiotics.
as §5, §6

MeWo human melanoma = assay: Cytotoxicity test (sulforodamine B), MeWo; type: cell-based; details: Homo sapiens, read-out: IC50 ± SE
Procedure: as §1, §4, §5, §6

[12] = system: MCF-7 human breast carcinoma; assay: Cytotoxicity test (sulforodamine B), MCF-7; type: cell-based; details: Homo sapiens, MCF7, read-out: IC50 ± SE
Procedure: as §1, §4, §5, §6

[13] = system: PC3 human prostate carcinoma; assay: Cytotoxicity test (sulforodamine B), PC3; type: cell-based; details: 24 h exposure, 48 h recovery, SRB
Procedure: as §1, §4
as §3, with “ice.” for “ice. After 1 h the TCA was removed, the plates were washed three times by immersion in distilled water and dried first on blotting paper and then in the oven.”

[14] = system: HCT 116 human colorectal carcinoma; assay: Cytotoxicity test (sulforodamine B), HCT 116; type: cell-based; details: Homo sapiens, HCT-116, read-out: IC50 ± SE
Procedure: as §1, §4, §5, §6

[15] = Evaluation of cardiovascular parameters (blood pressure, heart rate) in anaesthetised rats; type: in vivo; details: 20 or 40 mg/kg injected in the jugular vein, anaesthetised Wistar rats (FIG. 1)
Procedure: Combretastatin A4, its prodrug ST2494 and our water soluble selected compounds ST2495 and ST2496, diluted at the doses of 20 or 40 mg/kg in saline solution or for combretastatin A4 in 5% DMSO, were injected in the jugular vein of Wistar rats anaesthetised with 55 mg/kg Nembutal. The parameter considered were blood pressure and heart rate.

cell growth = details: background statement; cited from earlier work
[16] = system: Human umbilical vein endothelial cells (HUVEC); assay: Cytotoxicity test (sulforodamine B), HUVEC; type: cell-based; details: Homo sapiens, read-out: IC50 ± SE
Procedure: as §1
Human umbilical vein endothelial cells (HUVEC), from the BioWhittaker company, were maintained in EGM-2 culture medium (BioWhittaker).
as §5, §6

| Structure (SMILES) | side effects in Phase I study [1] | IC50 [2] | IC50 [3] | IC50 [4] | IC50 [5] | % inhibition of tubulin polymerization [6] | IC50 [7] | IC50 [8] | IC50 [9] | IC50 [10] | IC50 [11] | IC50 (MeWo human melanoma) | IC50 [12] | IC50 [13] | IC50 [14] | blood pressure [15] | heart rate [15] | concentration inhibiting cell growth (cell growth) | IC50 [16] |
| --- | --- | --- | --- | --- | --- | --- | --- | --- | --- | --- | --- | --- | --- | --- | --- | --- | --- | --- | --- |
| COc1ccc(/C=C\c2cc(OC)c(OC)c(OC)c2)cc1OP(=O)(O)O [combretastatin A4-P] | episodes of dose-limiting toxicity, including cases of acute coronary syndrome | – | – | – | – | – | – | – | – | – | – | – | – | – | – | – | – | – | – |
| COc1cc(/C=C\c2cc(O)c3ccoc3c2)cc(OC)c1OC [ST2179, Cis-6-[2-(3,4,5-trimethoxy-phenyl)-vinyl]-benzofuran-4-ol] | – | 0.093 ± 0.006 µM | 0.053 ± 0.0013 µM | 0.99 ± 0.04 µM | 0.04 ± 0.004 µM | 44.0% | 0.04 ± 0.0039 µM | 0.049 ± 0.001 µM | 0.05 ± 0.002 µM | 0.49 ± 4e-05 µM | 0.044 ± 0.0038 µM | 0.071 ± 0.017 µM | 0.038 ± 0.003 µM | 0.1 ± 1e-05 µM | 0.054 ± 0.009 µM | – | – | – | – |
| COc1ccc(/C=C\c2cc(OC)c(OC)c(OC)c2)cc1O [Combretastatin A4, Combretastatin A-4, reference compound] | – | – | – | – | – | – | – | – | – | – | – | – | – | – | – | significant increase in blood pressure | progressive decrease of heart rate | of the order of nanomoles | – |
| COc1cc(/C=C\c2cc(O)c3ccsc3c2)cc(OC)c1OC [ST2151, Cis-6-[2-(3,4,5-trimethoxy-phenyl)-vinyl]-benzo[b]thiophen-4-ol] | – | 0.49 ± 0.03 µM | 0.074 ± 0.0029 µM | 0.9 ± 0.065 µM | 0.086 ± 0.01 µM | 37.1% | 0.052 ± 0.0049 µM | 0.087 ± 0.001 µM | 0.07 ± 0.002 µM | 0.36 ± 1e-05 µM | 0.085 ± 0.0005 µM | 0.068 ± 0.005 µM | 0.066 ± 0.0027 µM | 0.12 ± 1e-05 µM | 0.084 ± 0.0038 µM | – | – | – | 0.049 ± 0.00064 µM |
